Experiment [1] relates to OCI-Ly10 human DLBCL cells. Description: OCI-Ly10 anti-proliferative activity (Resazurin). Format: cell-based. Conditions: Homo sapiens, OCI-Ly10, 72 h, OCI-Ly10 cells, 72 h compound treatment, Resazurin; read-out: Proliferation Assay OCI-Ly10-20% FBS. The method in brief: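 A separate untreated plate gave the Day 0 reading, measured by Resazurin fluorescence at 590 nm after 5 h. The average Day 0 value was subtracted from each treated well, and results were expressed as percent of DMSO control. IC50 values came from a log[Inhibitor] vs response Variable Slope fit in Graphpad prism.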

Experiment [2] concerns the target T1, Recombinant BTK^C481S kinase (Homo sapiens, UniProt Q06187, C481S).
T1 construct: purchased SignalChem
Description: BTK C481S binding affinity (LanthaScreen TR-FRET). Conditions: Kinase Tracer 236, 5 h incubation. In outline:
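BTK C481S tracer-displacement TR-FRET: 5 nM His-tagged kinase, 2 nM Eu anti-His antibody and 30 nM Kinase Tracer 236 incubated with titrated inhibitor for 5 h in Kinase Buffer A. Read at 340 nm excitation, 615/665 nm emission; IC50 from variable-slope log[inhibitor]–response fit.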
For orientation: In TR-FRET formats the signal depends on donor and acceptor labels being close together.

Experiment [3] addresses T2, Recombinant BTK^WT kinase (Homo sapiens, UniProt Q06187).
T2 construct: purchased Invitrogen
Description: BTK WT binding affinity (LanthaScreen TR-FRET). Conditions: Kinase Tracer 236, 5 h incubation. The method in brief:
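IC50 obtained by variable-slope fit of TR-FRET signal (ex 340 nm; em 615 and 665 nm) versus inhibitor concentration. Reaction held for 5 h in LanthaScreen Kinase Buffer A with 2.5 nM His-tagged BTK^WT, 15 nM Kinase Tracer 236 and 2 nM Eu anti-His antibody.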

Experiment [4] has as its target T3, Recombinant EGFR (Homo sapiens, UniProt P00533).
T3 construct: purchased Invitrogen
Kind of experiment: EGFR binding affinity (LanthaScreen TR-FRET). Conditions: Kinase Tracer 199, 5 h incubation. The method in brief:
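Compounds were titrated against recombinant EGFR and binding was followed by LanthaScreen time-resolved FRET.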

T2 sequence (Q06187 whole entry): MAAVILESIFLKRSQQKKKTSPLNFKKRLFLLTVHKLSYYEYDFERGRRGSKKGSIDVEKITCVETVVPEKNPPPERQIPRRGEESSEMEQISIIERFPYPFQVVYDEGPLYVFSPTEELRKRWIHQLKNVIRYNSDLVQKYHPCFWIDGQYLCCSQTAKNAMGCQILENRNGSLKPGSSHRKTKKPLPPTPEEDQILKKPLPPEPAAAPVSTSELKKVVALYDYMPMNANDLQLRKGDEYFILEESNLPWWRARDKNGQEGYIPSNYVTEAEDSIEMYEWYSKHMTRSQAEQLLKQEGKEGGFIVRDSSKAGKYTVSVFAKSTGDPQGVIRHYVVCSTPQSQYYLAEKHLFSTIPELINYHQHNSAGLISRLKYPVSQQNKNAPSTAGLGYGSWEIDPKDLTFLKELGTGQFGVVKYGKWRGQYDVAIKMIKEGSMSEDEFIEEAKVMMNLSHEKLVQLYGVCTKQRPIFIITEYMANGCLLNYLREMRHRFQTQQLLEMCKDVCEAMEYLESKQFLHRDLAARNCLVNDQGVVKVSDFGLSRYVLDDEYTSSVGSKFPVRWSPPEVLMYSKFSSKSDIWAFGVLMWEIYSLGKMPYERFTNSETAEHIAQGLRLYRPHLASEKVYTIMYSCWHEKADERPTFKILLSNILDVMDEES
T3 sequence (P00533 25-1210): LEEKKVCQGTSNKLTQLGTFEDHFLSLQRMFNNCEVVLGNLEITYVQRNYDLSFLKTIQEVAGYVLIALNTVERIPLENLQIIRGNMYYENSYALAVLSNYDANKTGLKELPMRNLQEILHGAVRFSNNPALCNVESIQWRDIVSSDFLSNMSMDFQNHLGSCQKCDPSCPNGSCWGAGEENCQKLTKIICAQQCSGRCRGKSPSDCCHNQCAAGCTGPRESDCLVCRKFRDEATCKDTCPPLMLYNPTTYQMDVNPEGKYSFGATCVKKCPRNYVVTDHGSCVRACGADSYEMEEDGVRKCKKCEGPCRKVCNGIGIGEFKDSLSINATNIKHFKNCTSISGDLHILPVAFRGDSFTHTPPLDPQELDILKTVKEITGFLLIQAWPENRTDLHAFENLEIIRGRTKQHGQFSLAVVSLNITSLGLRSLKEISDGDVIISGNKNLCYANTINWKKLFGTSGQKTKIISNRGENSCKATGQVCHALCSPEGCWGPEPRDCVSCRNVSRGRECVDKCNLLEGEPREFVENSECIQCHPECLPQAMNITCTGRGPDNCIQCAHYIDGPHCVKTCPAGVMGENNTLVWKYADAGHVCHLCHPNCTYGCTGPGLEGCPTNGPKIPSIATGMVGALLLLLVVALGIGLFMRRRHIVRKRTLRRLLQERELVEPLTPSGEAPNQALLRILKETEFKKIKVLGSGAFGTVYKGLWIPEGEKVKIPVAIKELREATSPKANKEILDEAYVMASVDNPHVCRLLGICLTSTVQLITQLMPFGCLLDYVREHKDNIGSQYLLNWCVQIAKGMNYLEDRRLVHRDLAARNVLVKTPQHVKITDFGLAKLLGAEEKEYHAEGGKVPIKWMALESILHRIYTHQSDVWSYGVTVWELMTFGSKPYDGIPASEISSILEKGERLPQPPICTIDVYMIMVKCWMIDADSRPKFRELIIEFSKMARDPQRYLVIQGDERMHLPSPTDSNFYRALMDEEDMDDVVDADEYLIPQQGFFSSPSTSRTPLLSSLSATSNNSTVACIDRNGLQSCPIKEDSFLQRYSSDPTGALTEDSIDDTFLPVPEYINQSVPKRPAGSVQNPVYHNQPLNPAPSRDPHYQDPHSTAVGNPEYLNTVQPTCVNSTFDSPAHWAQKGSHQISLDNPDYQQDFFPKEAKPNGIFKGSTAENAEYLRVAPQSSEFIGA
T1 sequence (Q06187 whole entry C481S): as the sequence (Q06187 whole entry) above, with C481S counted along it

`COc1ccccc1C(=O)NCc1ccc(-c2nn(-c3ccccc3F)c(N)c2C(N)=O)cc1` [Example 39, 5-amino-1-(2-fluorophenyl)-3-[4-[[(2-methoxybenzoyl)amino]methyl]phenyl]pyrazole-4-carboxamide]: the IC50 in experiment [1] was 10 to 100 nM; in experiment [2], < 10 nM; in experiment [3], < 10 nM; in experiment [4], 100 to 1000 nM.
Turning to `COc1ccccc1C(=O)NCc1ccc(-c2nn([C@H]3CCOC3)c(N)c2C(N)=O)cc1` [Example 83a, 5-amino-3-[4-[[(2-methoxybenzoyl)amino]methyl]phenyl]-1-[(3S)-tetrahydrofuran-3-yl]pyrazole-4-carboxamide], the IC50 was 100 to 1000 nM in experiment [1], < 10 nM in experiment [2], < 10 nM in experiment [3] and 1000 to 10000 nM in experiment [4].
Regarding `COc1ccccc1C(=O)NCc1ccc(-c2nn(-c3cccnc3)c(N)c2C(N)=O)cc1` [Example 51, 5-amino-3-[4-[[(2-methoxybenzoyl)amino]methyl]phenyl]-1-(3-pyridyl)pyrazole-4-carboxamide], the IC50 in experiment [1] was 10 to 100 nM; in experiment [2], < 10 nM; in experiment [3], < 10 nM; in experiment [4], 100 to 1000 nM.
Take `COc1ccccc1C(=O)NCc1ccc(-c2nn(C(C)C(F)(F)F)c(N)c2C(N)=O)cc1` (stereo not drawn) [Example 121, 5-amino-3-[4-[[(2-methoxybenzoyl)amino]methyl]phenyl]-1-(2,2,2-trifluoro-1-methyl-ethyl)pyrazole-4-carboxamide]: the IC50 is 10 to 100 nM in experiment [1], < 10 nM in experiment [2], < 10 nM in experiment [3] and 100 to 1000 nM in experiment [4].
Regarding `COc1ccccc1C(=O)NCc1cc(-c2nn(C3CCCC3)c(N)c2C(N)=O)ccc1F` [Example 118, 5-amino-1-cyclopentyl-3-[4-fluoro-3-[[(2-methoxybenzoyl)amino]methyl]phenyl]pyrazole-4-carboxamide], the IC50 in experiment [1] fell in the range of 1000 to 10000 nM; in experiment [2], 10 to 100 nM; in experiment [3] it was 100 to 1000 nM; in experiment [4], 1000 to 10000 nM.
`COc1ccccc1C(=O)NCc1ccc(-c2nn(C3CCOCC3)c(N)c2C(N)=O)c(F)c1F` [Example 141, 5-amino-3-[2,3-difluoro-4-[[(2-methoxybenzoyl)amino]methyl]phenyl]-1-tetrahydropyran-4-yl-pyrazole-4-carboxamide]: the IC50 was 100 to 1000 nM in experiment [1], < 10 nM in experiment [2], 10 to 100 nM in experiment [3] and > 10000 nM in experiment [4].
For `COc1ccccc1C(=O)NCc1ccc(-c2nn(C3CC(C)(C)OC(C)(C)C3)c(N)c2C(N)=O)cc1` [Example 90, 5-amino-3-[4-[[(2-methoxybenzoyl)amino]methyl]phenyl]-1-(2,2,6,6-tetramethyltetrahydropyran-4-yl)pyrazole-4-carboxamide], in that order: 100 to 1000 nM, < 10 nM, 10 to 100 nM and 1000 to 10000 nM.
With `COc1ccc(F)cc1C(=O)NCc1c(F)cc(-c2nn(C3CCCOC3)c(N)c2C(N)=O)cc1F` (stereo not drawn) [Example 158, 5-amino-3-[3,5-difluoro-4-[[(5-fluoro-2-methoxy-benzoyl)amino]methyl]phenyl]-1-tetrahydropyran-3-yl-pyrazole-4-carboxamide], the IC50 was 100 to 1000 nM in experiment [1], 10 to 100 nM in experiment [2], 10 to 100 nM in experiment [3] and > 10000 nM in experiment [4].
`COc1ccccc1C(=O)NCc1ccc(-c2nn(-c3cccc(C)c3)c(N)c2C(N)=O)cc1` [Example 50, 5-amino-3-[4-[[(2-methoxybenzoyl)amino]methyl]phenyl]-1-(m-tolyl)pyrazole-4-carboxamide]: the IC50 was 10 to 100 nM in experiment [1], < 10 nM in experiment [2], < 10 nM in experiment [3] and 100 to 1000 nM in experiment [4].
Turning to `COc1ccccc1C(=O)NCc1ccc(-c2nn(CC(F)(F)F)c(N)c2C(N)=O)cc1F` [Example 129, 5-amino-3-[3-fluoro-4-[[(2-methoxybenzoyl)amino]methyl]phenyl]-1-(2,2,2-trifluoroethyl)pyrazole-4-carboxamide], the IC50 in experiment [1] is 100 to 1000 nM; in experiment [2], < 10 nM; in experiment [3], < 10 nM; in experiment [4] it was 1000 to 10000 nM.
As for `COc1ccccc1C(=O)NCc1ccc(-c2nn(C3CCC4(CC3)COC4)c(N)c2C(N)=O)cc1` [Example 71, 5-amino-3-[4-[[(2-methoxybenzoyl)amino]methyl]phenyl]-1-(2-oxaspiro[3.5]nonan-7-yl)pyrazole-4-carboxamide], the IC50 is 10 to 100 nM in experiment [1], < 10 nM in experiment [2], < 10 nM in experiment [3] and 100 to 1000 nM in experiment [4].
As to `COc1ccc(F)cc1C(=O)NCc1ccc(-c2nn(C(C3CCCCC3)C(F)(F)F)c(N)c2C(N)=O)cc1` (stereo not drawn) [Example 192, 5-amino-1-(1-cyclohexyl-2,2,2-trifluoro-ethyl)-3-[4-[[(5-fluoro-2-methoxy-benzoyl)amino]methyl]phenyl]pyrazole-4-carboxamide], the IC50 in experiment [1] is 100 to 1000 nM; in experiment [2], 10 to 100 nM; in experiment [3], 10 to 100 nM; in experiment [4] it was 1000 to 10000 nM.
Take `COc1ccccc1C(=O)NCc1ccc(-c2nn(CC3(C)COC3)c(N)c2C(N)=O)cc1` [Example 8, 5-amino-3-[4-[[(2-methoxybenzoyl)amino]methyl]phenyl]-1-[(3-methyloxetan-3-yl)methyl]pyrazole-4-carboxamide]: the IC50 in experiment [1] is 100 to 1000 nM; in experiment [2], 10 to 100 nM; in experiment [3], 100 to 1000 nM; in experiment [4], > 10000 nM.
As for `CCn1nc(-c2ccc(CNC(=O)c3cc(F)ccc3OC)cc2)c(C(N)=O)c1N` [Example 195, 5-amino-1-ethyl-3-[4-[[(5-fluoro-2-methoxy-benzoyl)amino]methyl]phenyl]pyrazole-4-carboxamide], the IC50 is 10 to 100 nM in experiment [1], < 10 nM in experiment [2], < 10 nM in experiment [3] and 1000 to 10000 nM in experiment [4].
As for `COc1ccc(F)cc1C(=O)NCc1ccc(-c2nn(C3CCCOC3)c(N)c2C(N)=O)c(F)c1F` (stereo not drawn) [Example 159, 5-amino-3-[2,3-difluoro-4-[[(5-fluoro-2-methoxy-benzoyl)amino]methyl]phenyl]-1-tetrahydropyran-3-yl-pyrazole-4-carboxamide], the IC50 in experiment [1] is 10 to 100 nM; in experiment [2] it was < 10 nM; in experiment [3], < 10 nM; in experiment [4], > 10000 nM.
Turning to `COc1ccccc1C(=O)NCc1cc(F)c(-c2nn(C3CCCC3)c(N)c2C(N)=O)c(F)c1` [Example 140, 5-amino-1-cyclopentyl-3-[2,6-difluoro-4-[[(2-methoxybenzoyl)amino]methyl]phenyl]pyrazole-4-carboxamide], the IC50 is 100 to 1000 nM in experiment [1], < 10 nM in experiment [2], < 10 nM in experiment [3] and > 10000 nM in experiment [4].
For `COc1ccccc1C(=O)NCc1ccc(-c2nn([C@H]3CC[C@@H](O)C3)c(N)c2C(N)=O)cc1` (relative stereo) [Example 20, 5-Amino-1-[(1S*,3R*)-3-hydroxycyclopentyl]-3-[4-[[(2-methoxybenzoyl)amino]methyl]phenyl]pyrazole-4-carboxamide], the IC50 in experiment [1] is 10 to 100 nM; in experiment [2] it was < 10 nM; in experiment [3], < 10 nM; in experiment [4], 100 to 1000 nM.
As to `CCN1CC(n2nc(-c3ccc(CNC(=O)c4cc(F)ccc4OC)cc3)c(C(N)=O)c2N)C(F)(F)C1` (stereo not drawn) [Example 198, 5-Amino-1-(1-ethyl-4,4-difluoro-pyrrolidin-3-yl)-3-[4-[[(5-fluoro-2-methoxy-benzoyl)amino]methyl]phenyl]pyrazole-4-carboxamide], the IC50 was 10 to 100 nM in experiment [1], < 10 nM in experiment [2], < 10 nM in experiment [3] and 1000 to 10000 nM in experiment [4].
For the molecule `COc1ccc(F)cc1C(=O)NCc1ccc(-c2nn(C3CNCC3(F)F)c(N)c2C(N)=O)cc1` (stereo not drawn) [Example 169, 5-amino-1-(4,4-difluoropyrrolidin-3-yl)-3-[4-[[(5-fluoro-2-methoxy-benzoyl)amino]methyl]phenyl]pyrazole-4-carboxamide], the IC50 was 10 to 100 nM in experiment [1], < 10 nM in experiment [2], < 10 nM in experiment [3] and 1000 to 10000 nM in experiment [4].
On to `COc1ccccc1C(=O)NCc1ccc(-c2nn(C(C)C(F)F)c(N)c2C(N)=O)cc1` (stereo not drawn) [Example 126, 5-amino-1-(2,2-difluoro-1-methyl-ethyl)-3-[4-[[(2-methoxybenzoyl)amino]methyl]phenyl]pyrazole-4-carboxamide], for which the IC50 in experiment [1] was 100 to 1000 nM; in experiment [2], < 10 nM; in experiment [3], 10 to 100 nM; in experiment [4], 1000 to 10000 nM.
The like results for `COc1ccccc1C(=O)NCc1ccc(-c2nn(C3CCCC(=O)C3)c(N)c2C(N)=O)cc1` (stereo not drawn) [Example 12, 5-amino-3-[4-[[(2-methoxybenzoyl)amino]methyl]phenyl]-1-(3-oxocyclohexyl)pyrazole-4-carboxamide] were, in that order, 1000 to 10000 nM, 100 to 1000 nM, 100 to 1000 nM and > 10000 nM.

These data come from US11826351B2, “Compounds useful as kinase inhibitors” (Loxo Oncology, Inc., priority 2015, dated 2023).
